Data set [1] deals with Escherichia coli. Put plainly: microbe, parasite or virus in culture.
Description: Antimicrobial activity against Escherichia coli expressing beta-lactamase TEM-10 by CLSI broth microdilution method
For data set [2], the system named is Escherichia coli. Put plainly: microbe, parasite or virus in culture. The source holds these as a separate data set.
Description: Antimicrobial activity against Escherichia coli expressing beta-lactamase AmpC by CLSI broth microdilution method
Data set [3] concerns Escherichia coli. Put plainly: microbe, parasite or virus in culture. This is another data set of the same source.
Description: Antimicrobial activity against Escherichia coli expressing beta-lactamase SHV-12 by CLSI broth microdilution method
Data set [4] relates to Pseudomonas aeruginosa. Put plainly: Antimicrobial activity against Pseudomonas aeruginosa ATCC 27853 by CLSI broth microdilution method. The class given is functional.
The subject of data set [5] is Escherichia coli. Briefly: microbe, parasite or virus in culture. The source holds these as a separate data set.
Description: Antimicrobial activity against wild type Escherichia coli by CLSI broth microdilution method
Data set [6] relates to Escherichia coli. Briefly: Antimicrobial activity against Escherichia coli expressing beta-lactamase KPC-2 by CLSI broth microdilution method. The class given is functional. (Dilution methods test growth across graded concentrations, often in twofold steps.)
The test system of data set [7] is Pseudomonas aeruginosa. Put plainly: Antimicrobial activity against Pseudomonas aeruginosa expressing delta-mexB/mexXY/delta-ampDh2/ delta-ampD by CLSI broth microdilution method. The class given is functional.
Data set [8] deals with Pseudomonas aeruginosa. Put plainly: Antimicrobial activity against Pseudomonas aeruginosa expressing delta-mexB/delta-mexXY/delta-mexCD and delta-ampC mutant by CLSI broth microdilution method. The class given is functional.
Data set [9] relates to Pseudomonas aeruginosa. Briefly: Antimicrobial activity against Pseudomonas aeruginosa expressing nalB/delta-mexXY/delta-mexCDoprJ/delta-ampC by CLSI broth microdilution method. The class given is functional.
Data set [10] deals with Escherichia coli. Briefly: microbe, parasite or virus in culture. The source holds these as a separate data set.
Description: Antimicrobial activity against Escherichia coli expressing beta-lactamase CMY-2 by CLSI broth microdilution method
For data set [11], the system named is Escherichia coli. Briefly: microbe, parasite or virus in culture. The source holds these as a separate data set.
Description: Antimicrobial activity against Escherichia coli expressing beta-lactamase CTXM-15 by CLSI broth microdilution method
The subject of data set [12] is Escherichia coli. Put plainly: microbe, parasite or virus in culture. The source holds these as a separate data set.
Description: Antimicrobial activity against Escherichia coli expressing beta-lactamase IMI-1 by CLSI broth microdilution method
The test system of data set [13] is Escherichia coli. Put plainly: microbe, parasite or virus in culture. The source holds these as a separate data set.
Description: Antimicrobial activity against Escherichia coli expressing beta-lactamase GES-1 by CLSI broth microdilution method
In data set [14] the test system is Escherichia coli. Briefly: Antimicrobial activity against Escherichia coli expressing beta-lactamase NDM-1 by CLSI broth microdilution method. The class given is functional.
The subject of data set [15] is Escherichia coli. Briefly: microbe, parasite or virus in culture. This is another data set of the same source.
Description: Antimicrobial activity against Escherichia coli expressing beta-lactamase PER-4 by CLSI broth microdilution method
Data set [16] deals with Escherichia coli. Put plainly: microbe, parasite or virus in culture. The source holds these as a separate data set.
Description: Antimicrobial activity against Escherichia coli expressing beta-lactamase PER-2 by CLSI broth microdilution method
Data set [17] has as its system Escherichia coli. Put plainly: microbe, parasite or virus in culture. The source holds these as a separate data set.
Description: Antimicrobial activity against Escherichia coli expressing beta-lactamase PER-1 by CLSI broth microdilution method
The test system of data set [18] is Escherichia coli. Briefly: microbe, parasite or virus in culture. The source holds these as a separate data set.
Description: Antimicrobial activity against Escherichia coli expressing beta-lactamase Oxa-146 by CLSI broth microdilution method
Data set [19] relates to Escherichia coli. Briefly: microbe, parasite or virus in culture. The source holds these as a separate data set.
Description: Antimicrobial activity against Escherichia coli expressing beta-lactamase MIR-1 by CLSI broth microdilution method
The test system of data set [20] is Escherichia coli. Put plainly: microbe, parasite or virus in culture. The source holds these as a separate data set.
Description: Antimicrobial activity against Escherichia coli expressing beta-lactamase SME-1 by CLSI broth microdilution method
Data set [21] relates to Escherichia coli. Briefly: microbe, parasite or virus in culture. This is another data set of the same source.
Description: Antimicrobial activity against Escherichia coli expressing beta-lactamase TEM-24 by CLSI broth microdilution method
Data set [22] relates to Escherichia coli. Put plainly: microbe, parasite or virus in culture. This is another data set of the same source.
Description: Antimicrobial activity against Escherichia coli expressing beta-lactamase TEM-121 by CLSI broth microdilution method
In data set [23] the test system is Escherichia coli. Put plainly: microbe, parasite or virus in culture. The source holds these as a separate data set.
Description: Antimicrobial activity against Escherichia coli expressing beta-lactamase DHA by CLSI broth microdilution method
Data set [24] deals with Escherichia coli. Put plainly: microbe, parasite or virus in culture. The source holds these as a separate data set.
Description: Antimicrobial activity against Escherichia coli expressing beta-lactamase Oxa-48 by CLSI broth microdilution method
The subject of data set [25] is Escherichia coli. Put plainly: microbe, parasite or virus in culture. The source holds these as a separate data set.
Description: Antimicrobial activity against Escherichia coli expressing beta-lactamase Oxa-10 by CLSI broth microdilution method
The subject of data set [26] is Escherichia coli. Briefly: microbe, parasite or virus in culture. The source holds these as a separate data set.
Description: Antimicrobial activity against Escherichia coli expressing beta-lactamase SPM-1 by CLSI broth microdilution method
The test system of data set [27] is Escherichia coli. Briefly: microbe, parasite or virus in culture. This is another data set of the same source.
Description: Antimicrobial activity against Escherichia coli expressing beta-lactamase KPC-8 by CLSI broth microdilution method
The test system of data set [28] is Escherichia coli. Briefly: microbe, parasite or virus in culture. This is another data set of the same source.
Description: Antimicrobial activity against Escherichia coli expressing beta-lactamase Oxa-160 by CLSI broth microdilution method
The test system of data set [29] is Escherichia coli. Briefly: microbe, parasite or virus in culture. This is another data set of the same source.
Description: Antimicrobial activity against Escherichia coli expressing beta-lactamase Oxa-51 by CLSI broth microdilution method
For data set [30], the system named is Escherichia coli. Put plainly: microbe, parasite or virus in culture. This is another data set of the same source.
Description: Antimicrobial activity against Escherichia coli expressing beta-lactamase IMP-1 by CLSI broth microdilution method
The test system of data set [31] is Escherichia coli. Put plainly: microbe, parasite or virus in culture. This is another data set of the same source.
Description: Antimicrobial activity against Escherichia coli expressing beta-lactamase NMC-A by CLSI broth microdilution method
Data set [32] concerns Escherichia coli. Briefly: microbe, parasite or virus in culture. This is another data set of the same source.
Description: Antimicrobial activity against Escherichia coli expressing beta-lactamase CTXM-3 by CLSI broth microdilution method
For data set [33], the system named is Escherichia coli. Put plainly: microbe, parasite or virus in culture. This is another data set of the same source.
Description: Antimicrobial activity against Escherichia coli expressing beta-lactamase Oxa-181 by CLSI broth microdilution method
The subject of data set [34] is Escherichia coli. Put plainly: microbe, parasite or virus in culture. This is another data set of the same source.
Description: Antimicrobial activity against Escherichia coli expressing beta-lactamase GIM-1 by CLSI broth microdilution method
Data set [35] concerns Escherichia coli. Briefly: microbe, parasite or virus in culture. This is another data set of the same source.
Description: Antimicrobial activity against Escherichia coli expressing beta-lactamase Oxa-23 by CLSI broth microdilution method
For data set [36], the system named is Escherichia coli. Put plainly: Antimicrobial activity against Escherichia coli expressing beta-lactamase TEM-1 by CLSI broth microdilution method. The class given is functional.
Data set [37] concerns Escherichia coli. Briefly: microbe, parasite or virus in culture. This is another data set of the same source.
Description: Antimicrobial activity against Escherichia coli expressing beta-lactamase VIM-1 by CLSI broth microdilution method
In data set [38] the test system is Escherichia coli. Put plainly: microbe, parasite or virus in culture. This is another data set of the same source.
Description: Antimicrobial activity against Escherichia coli expressing beta-lactamase VEB-7 by CLSI broth microdilution method
For data set [39], the system named is Escherichia coli. Briefly: microbe, parasite or virus in culture. The source holds these as a separate data set.
Description: Antimicrobial activity against Escherichia coli expressing beta-lactamase VEB-4 by CLSI broth microdilution method
Data set [40] concerns Escherichia coli. Put plainly: microbe, parasite or virus in culture. This is another data set of the same source.
Description: Antimicrobial activity against Escherichia coli expressing beta-lactamase KPC-4 by CLSI broth microdilution method
Data set [41] has as its system Escherichia coli. Put plainly: microbe, parasite or virus in culture. This is another data set of the same source.
Description: Antimicrobial activity against Escherichia coli expressing beta-lactamase Oxa-18 by CLSI broth microdilution method
Data set [42] concerns Escherichia coli. Briefly: microbe, parasite or virus in culture. The source holds these as a separate data set.
Description: Antimicrobial activity against Escherichia coli expressing beta-lactamase Oxa-225 by CLSI broth microdilution method
Data set [43] concerns Escherichia coli. Put plainly: Antimicrobial activity against Escherichia coli expressing beta-lactamase NDM-5 by CLSI broth microdilution method. The class given is functional.
For data set [44], the system named is Escherichia coli. Briefly: microbe, parasite or virus in culture. The source holds these as a separate data set.
Description: Antimicrobial activity against Escherichia coli expressing beta-lactamase KPC-3 by CLSI broth microdilution method
Data set [45] concerns Escherichia coli. Put plainly: microbe, parasite or virus in culture. The source holds these as a separate data set.
Description: Antimicrobial activity against Escherichia coli expressing beta-lactamase TEM-47 by CLSI broth microdilution method
The subject of data set [46] is Escherichia coli. Briefly: microbe, parasite or virus in culture. This is another data set of the same source.
Description: Antimicrobial activity against Escherichia coli expressing beta-lactamase Oxa-40 by CLSI broth microdilution method
For data set [47], the system named is Escherichia coli. Briefly: microbe, parasite or virus in culture. The source holds these as a separate data set.
Description: Antimicrobial activity against Escherichia coli expressing beta-lactamase P99 by CLSI broth microdilution method
In data set [48] the test system is Escherichia coli. Briefly: microbe, parasite or virus in culture. This is another data set of the same source.
Description: Antimicrobial activity against Escherichia coli expressing beta-lactamase TEM-16 by CLSI broth microdilution method
The test system of data set [49] is Escherichia coli. Briefly: Antimicrobial activity against Escherichia coli expressing beta-lactamase VEB-1 by CLSI broth microdilution method. The class given is functional.
Data set [50] is described as follows: Chemical stability in pH 7.4 potassium phosphate buffer assessed as half life for compound hydrolysis at 37 degC by UPLC and mass spectrometry. The class given is physicochemical.

Values after ≈ are worked out from the molar mass of the structure shown. A value given as a limit tells only on which side of the number the result lay.

Consider `CC(C)(O/N=C(\C(=O)N[C@@H]1C(=O)N(S(=O)(=O)O)[C@@H]1Cn1cncn1)c1nsc(N)n1)C(=O)O`, for which the MIC in data set [1] is 8 µg/mL (≈ 15.9 µM); in data set [2], 32 µg/mL (≈ 63.6 µM); in data set [3], 8 µg/mL (≈ 15.9 µM); in data set [4], 32 µg/mL (≈ 63.6 µM); in data set [5], 1 µg/mL (≈ 1.99 µM); in [6], 2 µg/mL (≈ 3.97 µM). In addition, the MIC is above 64 µg/mL in data set [7]; 1 µg/mL (≈ 1.99 µM) in [8]; above 64 µg/mL in [9]; 16 µg/mL (≈ 31.8 µM) in data set [10]; 1 µg/mL (≈ 1.99 µM) in data set [11].

In the case of `CC1(C)[C@H](NC(=O)/C(=N\OCc2cc(=O)c(O)cn2O)c2csc(N)n2)C(=O)N1OS(=O)(=O)O` (stereo in doubt), the MIC in data set [12] is 0.25 µg/mL (≈ 0.482 µM); in data set [13], 0.25 µg/mL (≈ 0.482 µM); in data set [14], 0.25 µg/mL (≈ 0.482 µM); in data set [1], above 64 µg/mL; in data set [15] it was 0.5 µg/mL (≈ 0.964 µM); in [16], above 64 µg/mL. Moreover, the MIC came to 0.5 µg/mL (≈ 0.964 µM) in [2]; 16 µg/mL (≈ 30.9 µM) in data set [17]; 2 µg/mL (≈ 3.86 µM) in data set [18]; 2 µg/mL (≈ 3.86 µM) in data set [19]; 0.5 µg/mL (≈ 0.964 µM) in [20]; 16 µg/mL (≈ 30.9 µM) in data set [21]. Besides, the MIC was above 32 µg/mL in data set [3]; 8 µg/mL (≈ 15.4 µM) in data set [22]; 0.25 µg/mL (≈ 0.482 µM) in data set [23]; 0.25 µg/mL (≈ 0.482 µM) in data set [5]; 0.125 µg/mL (≈ 0.241 µM) in [24]; 0.125 µg/mL (≈ 0.241 µM) in [25]. The MIC in [26] was at most 0.06 µg/mL; in data set [27], 8 µg/mL (≈ 15.4 µM); in data set [28] it was 8 µg/mL (≈ 15.4 µM); in [29], 0.06 µg/mL (≈ 0.116 µM); in [6], 0.5 µg/mL (≈ 0.964 µM); in data set [30], 0.25 µg/mL (≈ 0.482 µM). In addition, the MIC was 0.25 µg/mL (≈ 0.482 µM) in data set [31]; 0.25 µg/mL (≈ 0.482 µM) in data set [32]; 0.125 µg/mL (≈ 0.241 µM) in data set [33]; at most 0.06 µg/mL in data set [34]; 0.06 µg/mL (≈ 0.116 µM) in data set [35]; 0.5 µg/mL (≈ 0.964 µM) in data set [36]. Also, the MIC in data set [37] is at most 0.06 µg/mL; in data set [38], 2 µg/mL (≈ 3.86 µM); in data set [39], 8 µg/mL (≈ 15.4 µM); in data set [40] it was 32 µg/mL (≈ 61.7 µM); in [41] it was 16 µg/mL (≈ 30.9 µM); in data set [42], 2 µg/mL (≈ 3.86 µM). The MIC is 0.125 µg/mL (≈ 0.241 µM) in [43]; 0.5 µg/mL (≈ 0.964 µM) in [44]; 2 µg/mL (≈ 3.86 µM) in data set [45]; 0.25 µg/mL (≈ 0.482 µM) in data set [10]; at most 0.03 µg/mL in data set [46]; 0.5 µg/mL (≈ 0.964 µM) in [47]. Further, the MIC was 16 µg/mL (≈ 30.9 µM) in [48], 1 µg/mL (≈ 1.93 µM) in data set [11] and 16 µg/mL (≈ 30.9 µM) in data set [49].

`CC(C)(O/N=C(\C(=O)N[C@@H]1C(=O)N(S(=O)(=O)O)[C@@H]1Cn1cncn1)c1csc(N)n1)C(=O)O` (stereo in doubt): the MIC came to 0.5 µg/mL (≈ 0.995 µM) in data set [14]; 1 µg/mL (≈ 1.99 µM) in data set [1]; 16 µg/mL (≈ 31.8 µM) in data set [2]; 1 µg/mL (≈ 1.99 µM) in data set [3]; 32 µg/mL (≈ 63.7 µM) in [4]; 0.5 µg/mL (≈ 0.995 µM) in data set [5]. The MIC in data set [6] was 1 µg/mL (≈ 1.99 µM); in data set [7], above 64 µg/mL; in [8] it was 1 µg/mL (≈ 1.99 µM); in data set [9] it was above 64 µg/mL; in [10] it was 8 µg/mL (≈ 15.9 µM); in [11], 0.5 µg/mL (≈ 0.995 µM). For the same compound, the half-life (commonly how long it takes for the measured level to halve) in data set [50] is 233 h.

Values taken from ChEMBL document CHEMBL4184210, “Optimization of novel monobactams with activity against carbapenem-resistant Enterobacteriaceae - Identification of LYS228” (Bioorg Med Chem Lett, 2018).
